The values below come from paper PMC11345841, “Exploring 2-Sulfonylpyrimidine Warheads as Acrylamide Surrogates for Targeted Covalent Inhibition: A BTK Story” (Journal of Medicinal Chemistry, 2024).

Data set [1] addresses T1, EPHB4 (Homo sapiens, UniProt P54760).
T1 construct: purchased Eurofins DiscoverX KINOMEscan (scanTK)
T1 sequence (P54760 16-987): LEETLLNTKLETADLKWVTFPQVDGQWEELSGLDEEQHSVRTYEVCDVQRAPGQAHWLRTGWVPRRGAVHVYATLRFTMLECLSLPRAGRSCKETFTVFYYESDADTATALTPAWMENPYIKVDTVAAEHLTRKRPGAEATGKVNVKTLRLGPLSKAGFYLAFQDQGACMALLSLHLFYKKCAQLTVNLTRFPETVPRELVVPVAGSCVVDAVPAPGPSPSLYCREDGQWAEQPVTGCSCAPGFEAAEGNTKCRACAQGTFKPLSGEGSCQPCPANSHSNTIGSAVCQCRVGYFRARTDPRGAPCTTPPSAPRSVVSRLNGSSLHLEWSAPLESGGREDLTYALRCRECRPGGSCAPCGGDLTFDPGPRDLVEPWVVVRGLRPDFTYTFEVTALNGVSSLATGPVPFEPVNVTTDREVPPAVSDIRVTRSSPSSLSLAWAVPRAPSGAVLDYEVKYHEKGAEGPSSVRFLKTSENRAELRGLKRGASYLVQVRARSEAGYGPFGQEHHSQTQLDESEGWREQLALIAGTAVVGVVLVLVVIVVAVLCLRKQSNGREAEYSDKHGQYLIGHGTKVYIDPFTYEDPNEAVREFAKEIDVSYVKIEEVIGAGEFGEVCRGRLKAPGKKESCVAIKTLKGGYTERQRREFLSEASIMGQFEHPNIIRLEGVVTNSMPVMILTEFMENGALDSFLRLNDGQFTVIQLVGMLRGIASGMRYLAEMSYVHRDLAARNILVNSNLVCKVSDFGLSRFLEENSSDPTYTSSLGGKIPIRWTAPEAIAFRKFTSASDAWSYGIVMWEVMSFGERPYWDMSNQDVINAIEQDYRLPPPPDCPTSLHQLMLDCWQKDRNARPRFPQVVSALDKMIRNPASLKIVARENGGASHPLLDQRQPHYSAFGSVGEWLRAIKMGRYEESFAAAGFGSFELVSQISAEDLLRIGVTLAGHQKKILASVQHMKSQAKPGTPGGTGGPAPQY
Kind of data set: KINOMEscan ScanTK. Format: binding.

In data set [2] the target is T2, RET(V804L) (Homo sapiens, UniProt P07949, V804L).
T2 construct: purchased Eurofins DiscoverX KINOMEscan (scanTK)
T2 sequence (P07949 29-1114 V804L): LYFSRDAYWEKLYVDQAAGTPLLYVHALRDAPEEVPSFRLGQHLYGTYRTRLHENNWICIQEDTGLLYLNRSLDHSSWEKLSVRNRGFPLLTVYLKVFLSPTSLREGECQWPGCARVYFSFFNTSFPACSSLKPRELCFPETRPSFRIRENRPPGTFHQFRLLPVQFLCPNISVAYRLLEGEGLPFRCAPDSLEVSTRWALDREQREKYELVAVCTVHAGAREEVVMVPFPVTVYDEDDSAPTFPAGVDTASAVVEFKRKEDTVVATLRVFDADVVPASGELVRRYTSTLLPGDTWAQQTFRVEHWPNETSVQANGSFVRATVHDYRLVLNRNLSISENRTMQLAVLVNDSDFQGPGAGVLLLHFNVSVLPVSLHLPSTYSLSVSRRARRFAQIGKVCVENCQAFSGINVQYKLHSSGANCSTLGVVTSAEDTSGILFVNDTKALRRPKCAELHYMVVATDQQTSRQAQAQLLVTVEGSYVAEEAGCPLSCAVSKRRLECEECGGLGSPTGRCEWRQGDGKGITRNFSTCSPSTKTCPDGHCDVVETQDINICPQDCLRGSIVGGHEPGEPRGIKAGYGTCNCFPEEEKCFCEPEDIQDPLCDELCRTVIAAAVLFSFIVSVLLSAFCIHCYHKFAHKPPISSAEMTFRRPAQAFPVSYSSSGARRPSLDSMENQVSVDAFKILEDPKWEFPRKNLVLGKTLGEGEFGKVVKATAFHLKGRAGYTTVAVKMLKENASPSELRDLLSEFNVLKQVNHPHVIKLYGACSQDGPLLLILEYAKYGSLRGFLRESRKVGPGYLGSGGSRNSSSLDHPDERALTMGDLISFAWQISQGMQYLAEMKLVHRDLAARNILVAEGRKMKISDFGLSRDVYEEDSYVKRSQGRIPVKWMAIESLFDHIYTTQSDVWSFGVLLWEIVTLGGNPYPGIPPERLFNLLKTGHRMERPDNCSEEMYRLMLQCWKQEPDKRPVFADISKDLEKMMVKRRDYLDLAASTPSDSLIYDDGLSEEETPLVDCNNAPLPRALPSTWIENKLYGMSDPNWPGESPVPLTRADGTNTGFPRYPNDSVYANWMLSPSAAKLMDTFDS
As to the kind of experiment: KINOMEscan ScanTK. Format: binding.

For data set [3], the target named is T3, TXK (Homo sapiens, UniProt P42681).
T3 construct: purchased Eurofins DiscoverX KINOMEscan (scanTK)
T3 sequence (P42681 1-527): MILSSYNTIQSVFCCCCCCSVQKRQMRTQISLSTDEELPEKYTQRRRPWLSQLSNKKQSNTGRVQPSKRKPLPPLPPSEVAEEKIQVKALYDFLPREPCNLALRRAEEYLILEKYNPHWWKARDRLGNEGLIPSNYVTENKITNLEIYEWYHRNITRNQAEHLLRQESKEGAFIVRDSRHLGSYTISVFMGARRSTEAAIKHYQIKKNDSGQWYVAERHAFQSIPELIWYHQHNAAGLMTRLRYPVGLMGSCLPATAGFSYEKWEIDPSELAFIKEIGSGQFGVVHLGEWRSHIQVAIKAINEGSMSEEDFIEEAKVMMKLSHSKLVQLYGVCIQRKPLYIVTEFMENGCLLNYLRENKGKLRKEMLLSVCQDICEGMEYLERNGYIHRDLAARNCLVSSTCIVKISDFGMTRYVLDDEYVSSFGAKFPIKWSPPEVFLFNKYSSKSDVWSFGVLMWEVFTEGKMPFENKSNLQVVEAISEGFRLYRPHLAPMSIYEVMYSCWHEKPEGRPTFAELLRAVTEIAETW
As to the kind of experiment: KINOMEscan ScanTK. The data set is classed as binding.

Data set [4] in a line: Plasma stability assay. Format: in vitro ADME. Conditions: 3 h incubation at 37 °C; 50% human plasma; 1 μM compound.
For data set [5], the target named is T4, FLT1 (Homo sapiens, UniProt P17948).
T4 construct: purchased Eurofins DiscoverX KINOMEscan (scanTK)
T4 sequence (P17948 27-1338): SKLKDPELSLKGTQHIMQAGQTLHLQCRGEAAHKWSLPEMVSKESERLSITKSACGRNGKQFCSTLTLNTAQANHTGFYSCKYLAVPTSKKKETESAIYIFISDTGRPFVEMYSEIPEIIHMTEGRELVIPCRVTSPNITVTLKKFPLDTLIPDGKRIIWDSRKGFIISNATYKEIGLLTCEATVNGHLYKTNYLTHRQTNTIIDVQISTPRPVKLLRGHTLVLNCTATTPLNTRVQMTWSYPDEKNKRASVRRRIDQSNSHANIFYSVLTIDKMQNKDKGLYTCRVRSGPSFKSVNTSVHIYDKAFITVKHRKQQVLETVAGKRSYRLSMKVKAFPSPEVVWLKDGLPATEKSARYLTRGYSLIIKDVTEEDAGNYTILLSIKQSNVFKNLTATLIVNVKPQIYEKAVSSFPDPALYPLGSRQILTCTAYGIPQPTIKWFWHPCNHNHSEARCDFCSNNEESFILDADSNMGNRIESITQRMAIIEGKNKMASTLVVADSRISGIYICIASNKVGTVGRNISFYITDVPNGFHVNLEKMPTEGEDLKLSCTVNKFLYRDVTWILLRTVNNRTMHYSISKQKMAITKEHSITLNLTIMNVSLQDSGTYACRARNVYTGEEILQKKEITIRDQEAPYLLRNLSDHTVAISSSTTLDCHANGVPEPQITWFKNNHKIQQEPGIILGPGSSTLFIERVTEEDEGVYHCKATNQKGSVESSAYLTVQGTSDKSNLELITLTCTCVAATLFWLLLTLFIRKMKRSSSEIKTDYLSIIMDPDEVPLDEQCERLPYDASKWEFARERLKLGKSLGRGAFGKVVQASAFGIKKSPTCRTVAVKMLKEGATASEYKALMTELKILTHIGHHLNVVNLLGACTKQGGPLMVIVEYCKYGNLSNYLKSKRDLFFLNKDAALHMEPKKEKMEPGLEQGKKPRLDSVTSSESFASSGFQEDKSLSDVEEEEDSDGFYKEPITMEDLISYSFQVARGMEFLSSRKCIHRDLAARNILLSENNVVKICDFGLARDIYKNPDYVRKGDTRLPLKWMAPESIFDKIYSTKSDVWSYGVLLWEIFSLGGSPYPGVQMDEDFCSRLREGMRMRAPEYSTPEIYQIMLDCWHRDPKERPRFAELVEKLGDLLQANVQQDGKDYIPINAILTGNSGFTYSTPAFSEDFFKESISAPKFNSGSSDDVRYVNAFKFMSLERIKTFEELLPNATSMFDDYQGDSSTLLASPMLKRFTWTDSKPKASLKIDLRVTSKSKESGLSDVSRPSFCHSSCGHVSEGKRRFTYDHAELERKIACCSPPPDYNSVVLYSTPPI
As to the kind of experiment: KINOMEscan ScanTK. The data set is classed as binding.

The test system of data set [6] is OCI-LY7 cells. Kind of data set: Anti-IgM-induced Ca2+ flux assay. Format: cell-based, human. Conditions: 1 h pretreatment, 1000 nM or lower concentrations. As for the experimental part: The effects of compounds on Ca^2+ release were then analyzed following treatment of OCI-LY7 cells (derived from a diffuse large B-cell lymphoma (DLBCL)) with anti-IgM to cross-link surface IgM (sIgM). […] For 8a and 8d, we performed similar experiments at lower concentrations.
Flow cytometry was performed using a FACS Canto II system (BD Biosciences). Data was acquired for 30 s before cells were stimulated with goat antihuman F(ab’)2 anti-IgM and data were acquired for a further 3.5 min. Cells were then treated with ionomycin (1 μM; Merck) and data were acquired for 2 min. Calcium responses were quantified by calculating area under the curve (AUC) in FlowJo (Becton Dickinson) from the point of addition of anti-IgM to the addition of ionomycin.
A general note: Calcium assays in cells follow changes in intracellular calcium, usually with a dye or a luminescent sensor.

For data set [7], the target named is wild-type BTK (Homo sapiens, UniProt Q06187). Kind of data set: BTK in vitro activity assay (ADP-Glo, poly-Glu:Tyr phosphorylation, TCEP). Conditions: for remaining activity at 0.1 µM: read-out: Remaining BTK activity (%).
Chain of wild-type BTK (Q06187 whole entry): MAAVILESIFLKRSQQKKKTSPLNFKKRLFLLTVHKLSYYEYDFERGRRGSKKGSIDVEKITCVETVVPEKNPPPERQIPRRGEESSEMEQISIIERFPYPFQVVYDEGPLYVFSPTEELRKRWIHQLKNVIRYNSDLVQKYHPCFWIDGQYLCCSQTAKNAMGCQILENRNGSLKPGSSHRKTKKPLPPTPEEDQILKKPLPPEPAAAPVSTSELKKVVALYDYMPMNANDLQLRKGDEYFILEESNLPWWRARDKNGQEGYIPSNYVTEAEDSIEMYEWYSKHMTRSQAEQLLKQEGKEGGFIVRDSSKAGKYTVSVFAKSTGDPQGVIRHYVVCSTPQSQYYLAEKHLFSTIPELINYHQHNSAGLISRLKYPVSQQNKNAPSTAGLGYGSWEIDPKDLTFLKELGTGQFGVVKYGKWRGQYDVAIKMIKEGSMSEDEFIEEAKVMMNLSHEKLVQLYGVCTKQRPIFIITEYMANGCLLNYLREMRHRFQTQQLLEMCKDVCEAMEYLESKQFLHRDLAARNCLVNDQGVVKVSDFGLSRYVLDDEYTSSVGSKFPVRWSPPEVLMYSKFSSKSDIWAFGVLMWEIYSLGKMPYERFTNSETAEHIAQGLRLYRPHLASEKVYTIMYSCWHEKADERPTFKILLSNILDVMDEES
Data set [8] can be described thus: Electrophilic reactivity assessment (GSH assay). Conditions: for stability/reactivity with 10-fold excess of GSH in PBS: up to 6 h at 20 °C, LC-MS.
Experimental: Final volume: 1200 μL; final composition: 100 μM compound, 100 μM standard, 1 mM GSH, 5% v/v DMSO. The resulting mixture was kept at 20 °C. Reaction monitoring and rate determination: LC-MS traces of the mixture were acquired every 10 min. Normalized integrations of the starting material and/or product were plotted as a function of time (s), using the 4-hydroxybenzoic acid peak as standard for integral calibration/normalization, allowing extraction of pseudo-first-order reaction rate constants (k’). All measurements were performed in triplicate.
Data set [9] deals with full-length wild-type BTK. As to the kind of experiment: Intact protein mass spectrometry, covalent modification. Conditions: 2:1 ratio of compound to protein (40 μM/20 μM), 23 °C. The data set is classed as binding.
Experimental: The proteins were injected into the sample loop and desalted for 3 min at 100 μL/min using water (0.1% formic acid) on an in-house packed POROS 20R-2 trap. Proteins were eluted into the mass spectrometer using a 15–70% ACN (0.1% formic acid) gradient in 10 min at a flow rate of 100 μL/min. Mass spectra were acquired using a Waters Synapt HDMSE mass spectrometer operated in TOF-only mode with a standard electrospray source, capillary voltage of 3200 V, and a cone voltage of 40 V with a mass range of 50–2000 m/z. Intact mass values for both free and labeled wild-type BTK were calculated from the raw m/z spectra using MaxEnt1 within MassLynx 4.1 (Waters) with a resolution of 0.05 Da and an output mass range of 65,000–85 000 Da.

Read-outs that look alike come from different tables or passages of the source.

One may read the IC50 as the midpoint of a concentration-inhibition curve. Low values mean greater potency in that assay, high ones weaker potency in that assay. A word on the remaining activity: it is the share of the control activity or signal that is left under treatment.

As for `CCOC(=O)c1cnc(S(C)(=O)=O)nc1N1CCC[C@@H](n2nc(-c3ccc(Oc4ccccc4)cc3)c3c(N)ncnc32)C1` [Compound 8c, Ethyl (R)-4-(3-(4-Amino-3-(4-phenoxyphenyl)-1H-pyrazolo[3,4-d]pyrimidin-1-yl)piperidin-1-yl)-2-(methylsulfonyl)pyrimidine-5-carboxylate], the figures for the difference in %Control from compound Ib at 1 µM in data set [1] (@1000nM) and in [5] (@1000nM) were -14% and 28%, respectively. Further, the remaining binding at 1 µM turned out to be 86% in data set [1] (@1000nM, read-out: %Control); 86% in data set [1] (read-out: %Control @1000nM); 100% in [2] (@1000nM, read-out: %Control); 100% in data set [2] (read-out: %Control @1000nM); 12% in [3] (@1000nM, read-out: %Control); 12% in data set [3] (read-out: %Control @1000nM). Also, the remaining binding at 1 µM in data set [5] (@1000nM, read-out: %Control) was found to be 100%; in data set [5] (read-out: %Control @1000nM), 100%. In addition, in [4], the “% compound remaining, human plasma stability” value is reported as 20–50%.
For the compound `Cc1cnc(S(C)(=O)=O)nc1N1CCCC(n2nc(-c3ccc(Oc4ccccc4)cc3)c3c(N)ncnc32)C1` (stereo not shown) [Compound 8a, 1-(1-(5-Methyl-2-(methylsulfonyl)pyrimidin-4-yl)piperidin-3-yl)-3-(4-phenoxyphenyl)-1H-pyrazolo[3,4-d]pyrimidin-4-amine], the “effect on anti-IgM-induced Ca2+ flux” value in data set [6] is given as “maintained for these compounds at concentrations down to 250 nM”. Further, the difference in %Control from compound Ib at 1 µM in data set [1] (@1000nM) is 0%; in data set [5] (@1000nM), 21%. The remaining binding at 1 µM is 100% in data set [1] (@1000nM, read-out: %Control); 100% in data set [1] (read-out: %Control @1000nM); 89% in data set [2] (@1000nM, read-out: %Control); 89% in [2] (read-out: %Control @1000nM); 14% in [3] (@1000nM, read-out: %Control); 14% in [3] (read-out: %Control @1000nM). Further, the remaining binding at 1 µM in data set [5] (@1000nM, read-out: %Control) was determined as 93%; in [5] (read-out: %Control @1000nM), 93%. For the same compound, the IC50 in [7] came to 24 ± 2 nM. The remaining activity at 0.1 µM in [7] came out at 4 ± 1%. Also, the “stability/reactivity with 10-fold excess of GSH in PBS” value in [8] was “fully stable”.
For `C=CC(=O)N1CCC[C@@H](n2nc(-c3ccc(Oc4ccccc4)cc3)c3c(N)ncnc32)C1` [Compound 1g, Ibrutinib, reference compound], the remaining binding at 1 µM in [1] (@1000nM, read-out: %Control) is 100%; in data set [1] (read-out: %Control @1000nM), 100%; in data set [3] (@1000nM, read-out: %Control), 8.7%; in data set [3] (read-out: %Control @1000nM), 8.7%; in [5] (@1000nM, read-out: %Control) it was 72%; in data set [5] (read-out: %Control @1000nM), 72%. Further, the “covalent modification of full-length WT BTK (intact mass)” value in data set [9] is reported as “modified full-length BTK”.
For `COC(=O)c1cnc(S(C)(=O)=O)nc1N1CCCC(n2nc(-c3ccc(Oc4ccccc4)cc3)c3c(N)ncnc32)C1` (stereo not shown) [Compound 8b, Methyl 4-(3-(4-Amino-3-(4-phenoxyphenyl)-1H-pyrazolo[3,4-d]pyrimidin-1-yl)piperidin-1-yl)-2-(methylsulfonyl)pyrimidine-5-carboxylate], the results for the difference in %Control from compound Ib at 1 µM in [1] (@1000nM) and in [5] (@1000nM) were -2% and 26%, respectively. The remaining binding at 1 µM in data set [1] (@1000nM, read-out: %Control) came out at 98%; in data set [1] (read-out: %Control @1000nM), 98%; in data set [2] (@1000nM, read-out: %Control), 90%; in data set [2] (read-out: %Control @1000nM) it was 90%; in data set [3] (@1000nM, read-out: %Control), 11%; in [3] (read-out: %Control @1000nM), 11%. Further, the remaining binding at 1 µM in data set [5] (@1000nM, read-out: %Control) came out at 98%; in data set [5] (read-out: %Control @1000nM) it was 98%. For the same compound, in data set [7], the IC50 came out at 57 ± 1 nM. Besides, in data set [7], the remaining activity at 0.1 µM is 2 ± 1%. In addition, the “% compound remaining, human plasma stability” value in data set [4] is on record as 20–50%.
With `CNC(=O)c1cnc(S(C)(=O)=O)nc1N1CCCC(n2nc(-c3ccc(Oc4ccccc4)cc3)c3c(N)ncnc32)C1` (stereo not shown) [Compound 8d, 4-(3-(4-Amino-3-(4-phenoxyphenyl)-1H-pyrazolo[3,4-d]pyrimidin-1-yl)piperidin-1-yl)-N-methyl-2-(methylsulfonyl)pyrimidine-5-carboxamide], in data set [6], the “effect on anti-IgM-induced Ca2+ flux” value is recorded as “maintained for these compounds at concentrations down to 250 nM”. Besides, the difference in %Control from compound Ib at 1 µM was determined as 0% in [1] (@1000nM) and 28% in data set [5] (@1000nM). The remaining binding at 1 µM worked out at 100% in [1] (@1000nM, read-out: %Control); 100% in [1] (read-out: %Control @1000nM); 93% in data set [2] (@1000nM, read-out: %Control); 93% in [2] (read-out: %Control @1000nM); 10% in data set [3] (@1000nM, read-out: %Control); 10% in data set [3] (read-out: %Control @1000nM). Moreover, the remaining binding at 1 µM in data set [5] (@1000nM, read-out: %Control) worked out at 100%; in [5] (read-out: %Control @1000nM), 100%. Also, in [7], the IC50 was 28 ± 6 nM. In addition, the remaining activity at 0.1 µM in data set [7] was 2 ± 0.5%. In data set [8] (100 μM compound, 1 mM GSH, PBS pH 7.4, 20 °C, triplicate), the “pseudo-first-order rate constant kGSH/PBS” value is listed as 47 × 10^–5 ± 0.5 × 10^–5 s^–1. For the same compound, the “stability/reactivity with 10-fold excess of GSH in PBS” value in data set [8] is recorded as “mild reactivity”. Also, the “covalent modification of full-length WT BTK (intact mass)” value in data set [9] is “clean and quantitative modification in under an hour”.
